The nature of this data set: recombinant UMI read abundance after kanamycin selection (control-corrected) (log10(CPM+1)); higher = more efficient recombination; extreme values may be limits of the assay; sequences stand for … in AGTGCAGAGAAAATCGGCCAGTTTTCTCTGCCTGCAGTCCGCATGCCGTGGGACCCCTTGGGTTCTAACCTGTTGCCTAGATTTATGCAGCGGACTGCCTTTCTCCCAAAGTGATAAACCGG…AGGTTGGTTTCACT; site = the 11-nt donor. In a few lines:
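After plating on IPTG (0.07 mM) plus kanamycin, or unselected, in two replicates, recombinant UMIs were PCR-amplified across the donor–target junction and sequenced. The cells were Escherichia coli co-electroporated with a UMI-tagged donor and donor-binding-loop pair library and a target plasmid with a fixed target and T7-inducible IS621 bridge recombinase. Values are log10(CPM+1), with CPM averaged over replicates and scaled by control-derived factors.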
With “AGGTACCCATGGACCGGTTTTCCCGGTAATCCGTATTTGTG (site AGGTGCCCTCA)”, the “recombinant UMI read abundance (log10)” value was 0.0127. Turning to “AGGTACCCATGGACCGGTTTTCCCGGTAATCCGTATTTGTG (site AGGTTCCCTCA)”, the “recombinant UMI read abundance (log10)” value amounted to 0.0248. As to “AGGTACGCATGGACCGGTTTTCCCGGTAATCCGTATTTGAG (site AGGTACGCTCT)”, the “recombinant UMI read abundance (log10)” value worked out at 1.72. With “AGGTAGACATGGACCGGTTTTCCCGGTAATCCGTATTTGCA (site AGGAAGACTTG)”, the “recombinant UMI read abundance (log10)” value worked out at 1.23. With “AGGTAGACATGGACCGGTTTTCCCGGTAATCCGTATTTGCA (site AGGCAGACTTG)” the figure was 2.47; with “AGGTAGACATGGACCGGTTTTCCCGGTAATCCGTATTTGCA (site AGGGAGACTTG)”, 0.688. For the sequence “AGGTAGACATGGACCGGTTTTCCCGGTAATCCGTATTTGCA (site AGGTAGACTTG)”, the “recombinant UMI read abundance (log10)” value was 2.88.

As for “AGGTAGCCATGGACCGGTTTTCCCGGTAATCCGTATTTGCA (site AGGAAGACTTG)”, the “recombinant UMI read abundance (log10)” value is 0. “AGGTAGCCATGGACCGGTTTTCCCGGTAATCCGTATTTGCA (site AGGTAGCCTTG)”: the “recombinant UMI read abundance (log10)” value was 0.

In the case of “AGGTAGCCATGGACCGGTTTTCCCGGTAATCCGTATTTGTA (site AGGTAGCCTTA)”, the “recombinant UMI read abundance (log10)” value worked out at 0.215. With “AGGTAGGCATGGACCGGTTTTCCCGGTAATCCGTATTTGGC (site AAGTAGGCTGC)” the figure was 0.588.

On to “AGGTAGGCATGGACCGGTTTTCCCGGTAATCCGTATTTGGC (site ACGTAGGCTGC)”, for which the “recombinant UMI read abundance (log10)” value is 1.87. To “AGGTAGGCATGGACCGGTTTTCCCGGTAATCCGTATTTGGC (site AGGTAGGCTGC)” belongs 2.65. As for “AGGTAGGCATGGACCGGTTTTCCCGGTAATCCGTATTTGGC (site ATGTAGGCTGC)”, the “recombinant UMI read abundance (log10)” value amounted to 0.775. As to “AGGTGCGCATGGACCGGTTTTCCCGGTAATCCGTATTTGTA (site AGGTGCGCTTA)”, the “recombinant UMI read abundance (log10)” value was 1.81.

On to “AGGTGGACATGGACCGGTTTTCCCGGTAATCCGTATTTGCA (site AGGAAGACTTG)”, for which the “recombinant UMI read abundance (log10)” value came out at 1.46. Take “AGGTGGACATGGACCGGTTTTCCCGGTAATCCGTATTTGCA (site AGGTGGACTTG)”: the “recombinant UMI read abundance (log10)” value came out at 2.73. As for “AGGTGGACATGGACCGGTTTTCCCGGTAATCCGTATTTGTA (site AGGTGGACTTA)”, the “recombinant UMI read abundance (log10)” value amounted to 2.2. As to “AGGTGGCCATGGACCGGTTTTCCCGGTAATCCGTATTTGCC (site AGGTGGCCTGG)”, the “recombinant UMI read abundance (log10)” value was determined as 0. On to “AGGTTCACATGGACCGGTTTTCCCGGTAATCCGTATTTGCC (site AGGTTCACTGG)”, for which the “recombinant UMI read abundance (log10)” value amounted to 2.11. With “AGGTTCCCATGGACCGGTTTTCCCGGTAATCCGTATTTGGG (site AGGTTCCCTCA)” the figure was 0.0189; with “AGGTTCCCATGGACCGGTTTTCCCGGTAATCCGTATTTGGG (site AGGTTCCCTCC)”, 0.0153; with “AGGTTCCCATGGACCGGTTTTCCCGGTAATCCGTATTTGGG (site AGGTTCCCTCG)”, 0.0155.

For the sequence “AGGTTCCCATGGACCGGTTTTCCCGGTAATCCGTATTTGGG (site AGGTTCCCTCT)”, the “recombinant UMI read abundance (log10)” value is 0.0453. On to “AGTAAAGCATGGACCGGTTTTCCCGGTAATCCGTATTTGCA (site AGTAAAGCTTG)”, for which the “recombinant UMI read abundance (log10)” value was 1.97. For “AGTAACGCATGGACCGGTTTTCCCGGTAATCCGTATTTGGT (site AGTAACGCTAC)”, the “recombinant UMI read abundance (log10)” value came to 1.7.

For the sequence “AGTAAGACATGGACCGGTTTTCCCGGTAATCCGTATTTGAA (site AGGAAGACTTG)”, the “recombinant UMI read abundance (log10)” value was determined as 0. To “AGTAAGACATGGACCGGTTTTCCCGGTAATCCGTATTTGAA (site AGTAAGACTTT)” belongs 1.27; to “AGTAAGACATGGACCGGTTTTCCCGGTAATCCGTATTTGTC (site AGTAAGACTGA)”, 1.36. With “AGTAAGCCATGGACCGGTTTTCCCGGTAATCCGTATTTGCA (site AGGAAGACTTG)” the figure was 0; with “AGTAAGCCATGGACCGGTTTTCCCGGTAATCCGTATTTGCA (site AGTAAGCCTTG)”, 0.539; with “AGTAAGGCATGGACCGGTTTTCCCGGTAATCCGTATTTGCT (site AGAAAGGCTAG)”, 1.39.

Turning to “AGTAAGGCATGGACCGGTTTTCCCGGTAATCCGTATTTGCT (site AGCAAGGCTAG)”, the “recombinant UMI read abundance (log10)” value amounted to 1.21. Turning to “AGTAAGGCATGGACCGGTTTTCCCGGTAATCCGTATTTGCT (site AGGAAGGCTAG)”, the “recombinant UMI read abundance (log10)” value is 0.32. Turning to “AGTAAGGCATGGACCGGTTTTCCCGGTAATCCGTATTTGCT (site AGTAAGGCTAG)”, the “recombinant UMI read abundance (log10)” value was 2.75. As to “AGTAAGTCATGGACCGGTTTTCCCGGTAATCCGTATTTGAA (site AGTAAGTCTTT)”, the “recombinant UMI read abundance (log10)” value worked out at 2.1. To “AGTAGCACATGGACCGGTTTTCCCGGTAATCCGTATTTGAG (site AGTAGCACTCT)” belongs 1.24; to “AGTAGGACATGGACCGGTTTTCCCGGTAATCCGTATTTGCA (site AGGAAGACTTG)”, 1.45. As to “AGTAGGACATGGACCGGTTTTCCCGGTAATCCGTATTTGCA (site AGTAGGACTTG)”, the “recombinant UMI read abundance (log10)” value came to 2.91. Turning to “AGTAGGGCATGGACCGGTTTTCCCGGTAATCCGTATTTGAG (site AGTAGGGCTCT)”, the “recombinant UMI read abundance (log10)” value was determined as 1.41.

As for “AGTCAAGCATGGACCGGTTTTCCCGGTAATCCGTATTTGAA (site AGTCAAGCTTT)”, the “recombinant UMI read abundance (log10)” value amounted to 1.39. Regarding “AGTCCAACATGGACCGGTTTTCCCGGTAATCCGTATTTGTA (site AGTCCAACTTA)”, the “recombinant UMI read abundance (log10)” value worked out at 0.694. As for “AGTCCAACATGGACCGGTTTTCCCGGTAATCCGTATTTGTA (site CGTCCAACTTA)”, the “recombinant UMI read abundance (log10)” value is 0.

“AGTCCAACATGGACCGGTTTTCCCGGTAATCCGTATTTGTA (site GGTCCAACTTA)”: the “recombinant UMI read abundance (log10)” value worked out at 0.172. Consider “AGTCCAACATGGACCGGTTTTCCCGGTAATCCGTATTTGTA (site TGTCCAACTTA)”, for which the “recombinant UMI read abundance (log10)” value came to 0.141. To “AGTCCTTCATGGACCGGTTTTCCCGGTAATCCGTATTTGCA (site AGTCCTTCTTG)” belongs 1.24. With “AGTCTACCATGGACCGGTTTTCCCGGTAATCCGTATTTGCT (site AGTCTACCTAG)” the figure was 0. Take “AGTGAGACATGGACCGGTTTTCCCGGTAATCCGTATTTGGT (site AATGAGACTAC)”: the “recombinant UMI read abundance (log10)” value was found to be 0.439.

On to “AGTGAGACATGGACCGGTTTTCCCGGTAATCCGTATTTGGT (site ACTGAGACTAC)”, for which the “recombinant UMI read abundance (log10)” value stood at 0.312. On to “AGTGAGACATGGACCGGTTTTCCCGGTAATCCGTATTTGGT (site AGTGAGACTAC)”, for which the “recombinant UMI read abundance (log10)” value amounted to 1.21.

As for “AGTGAGACATGGACCGGTTTTCCCGGTAATCCGTATTTGGT (site ATTGAGACTAC)”, the “recombinant UMI read abundance (log10)” value was 0.546.

For the sequence “AGTGCAACATGGACCGGTTTTCCCGGTAATCCGTATTTGGC (site AGTGCAACTGC)”, the “recombinant UMI read abundance (log10)” value was 0.

The values are drawn from the supplement of paper PMC11208160.
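Further: IS621 bridge recombinase in Escherichia coli cells against a fixed T5 target plasmid.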
